From patent US12692267B2 (Madera Therapeutics, LLC, priority 2019, dated 2026)
pIC50: −log10 of the molar value.

Tests used:
[1] = test system: MDA-MB-231 (MDA 231, human breast adenocarcinoma); experiment: Cancer cell viability, CCK-8, MDA-MB-231; format: cell-based; details: Homo sapiens, MDA-MB-231; MDA 231, 48 hours, CCK-8; read-out: EC50 (uM, MDA 231)
Method: (§1) Cancer cell lines. […] The plate is incubated for 48 hours.
(§2) CCK-8 solution is added directly to the cells.

[2] = test system: HCT116 (human colon cancer); experiment: Cancer cell viability, CCK-8, HCT116; format: cell-based; details: Homo sapiens, HCT-116, 48 h, HCT116, 48 hours, CCK-8; read-out: EC50 (uM, HCT116)
Method: as §1, §2

ALAS1 (SEQ ID NO. 2) = experiment: ALAS1 Western blotting time courses (FIG. 15-17); details: Ex. 85 at 50 nM; 30 minute, sustained over 24 hrs
[3] = test system: AN3CA (human uterine cancer); experiment: Cell viability CCK8, 72 hours, AN3CA; format: cell-based; details: AN3-CA, 72 hours of drug incubation
Method: (§3) For cancer cell lines, AN3CA (human uterine/endometrial cancer, Van Nyen, T. et al Int. J. Mol. Sci. 2018, 19, 2348 and referenced cited therein) cell line and Capan-2 (human pancreatic adenocarcinoma) cell line additional details for testing are as follows. Using 96 well cell culture plate (Corning Costar, Cat #3599), after addition of the test compound (Example 65, or other) the plate is incubated at 37° C., 5% CO2 for 72 hours. Cell viability was determined using CCK8 assay by adding […] of CCK8 into the assay well, incubate the plate for 2 hours and record […] using a SpectraMax i3X reader. Other 72 hour incubation studies can also using these details in addition to other experimental details described herein.
(§4) Example 65 was examined in AN3CA (human uterine cancer) and Capan-2 (human pancreatic adenocarcinoma) cancer cell lines.

[4] = test system: Capan-2 (human pancreatic adenocarcinoma); experiment: Cell viability CCK8, 72 hours, Capan-2; format: cell-based; details: 72 hours of drug incubation
Method: as §3, §4

[5] = test system: MDA-MB-231 triple negative breast cancer cells; experiment: Immunoblot of mitochondrial proteins, MDA-MB-231 (FIG. 12); format: cell-based; details: MDA-MB-231, 100 nM, 3-48 hrs
Method: (§5) Immunoblot of SUM159 or MDA-MB-231 cells following 0.1% DMSO (48 hrs) or 100 nM Ex. 65 for indicated timepoints (3-48 hrs) for indicated proteins.

[6] = molecular target: recombinant human caseinolytic peptidase hClpP (Homo sapiens, UniProt Q16740); experiment: hClpP peptide hydrolysis assay (Ac-WLA-AMC); details: Protocol 2, purified hClpP, Ac-WLA-AMC
recombinant human caseinolytic peptidase hClpP, sequence (Q16740 57-277): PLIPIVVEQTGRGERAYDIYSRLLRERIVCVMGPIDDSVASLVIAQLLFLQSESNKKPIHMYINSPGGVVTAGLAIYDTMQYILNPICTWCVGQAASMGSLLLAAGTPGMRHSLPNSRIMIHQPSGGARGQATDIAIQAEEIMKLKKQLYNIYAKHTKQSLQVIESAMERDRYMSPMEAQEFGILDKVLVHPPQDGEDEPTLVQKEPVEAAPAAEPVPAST
Method: Briefly, the activity of recombinant hClpP proteolytic subunit (1 μg/mL) was measured in the assay buffer composed of 50 mM Tris, 10 mM MgCl2, 100 mM KCl, 1 mM DTT, 4 mM ATP, 0.02% Triton X-100 and 5% Glycerol, pH 8.0 (HCl) using 10 µM of fluorogenic Ac-WLA-AMC substrate as described in references above. […] Using the first protocol (Protocol 1), the reaction was initiated by immediately mixing enzyme and substrate in the presence of indicated doses of compounds. Applying a second protocol (Protocol 2), the enzyme and compounds were mixed and incubated in assay buffer for 60 min before initiating the reaction by adding Ac-WLA-ACM substrate.
Enzymatic activity of hClpP was measured in assay buffer (as described in Experimental Procedure/Materials and Methods) and the level of fluorescence of liberated coumarin monitored continuously.

[7] = test system: SUM159 triple negative breast cancer cells; experiment: Immunoblot of mitochondrial proteins, SUM159 (FIG. 12); format: cell-based; details: SUM159, 100 nM, 3-48 hrs
Method: as §5

hClpP = molecular target: T1, hClpP (Homo sapiens, UniProt Q16740); experiment: hClpP binding to immobilized compound Sepharose beads, Western blot
T1 construct: endogenous in cells; host or cells: HeLa cell lysate
T1 sequence (Q16740 57-277): as above

ClpX and TUFM = ClpX and TUFM Western blots in SUM159 cells (FIG. 5); details: concentration response and time course
SUM159, ClpP CRISPR KO = experiment: Growth of SUM159 versus SUM159 ClpP CRISPR KO cells (FIG. 6); details: SUM159 ClpP CRISPR KO compared to SUM159

N#Cc1cccc(CN2CCc3cnn(Cc4ccc(Cl)cc4)c(=O)c3C2)c1 [Example 85, 3-((3-(4-chlorobenzyl)-4-oxo-3,5,7,8-tetrahydropyrido[3,4-d]pyridazin-6 (4H)-yl)methyl)benzonitrile]
EC50 [1]: 0.003 µM | EC50 [2]: 0.008 µM | ALAS1 protein level (FIG. 16) (ALAS1 (SEQ ID NO. 2)): rapidly degraded

N#Cc1cccc(CN2CCc3ncn(Cc4ccc(Cl)cc4)c(=O)c3C2)c1 [Example 65]
pIC50 [3]: 9.00 | pIC50 [4]: > 7.30 | Mitochondrial protein degradation [5]: induces degradation of mitochondrial proteins in a time dependent manner | EC50 [2]: 0.021 µM | Dose-dependency of hClpP activation [6]: Dose-dependent increases in hClpP activity | Mitochondrial protein degradation [7]: induces degradation of mitochondrial proteins in a time dependent manner

N#Cc1cccc(CN2CCc3c(c(=O)n(Cc4ccc(C(F)(F)F)cc4)c(=O)n3CCCN)C2)c1 [Ex. 57, 3-((1-(3-aminopropyl)-2,4-dioxo-3-(4-(trifluoromethyl)benzyl)-1,2,3,4,7,8-hexahydropyrido[4,3-d]pyrimidin-6 (5H)-yl)methyl)benzonitrile]
hClpP binding to compound coupled to Sepharose beads (hClpP): directly binds | EC50 [2]: 0.057 µM | Dose-dependency of hClpP activation [6]: dose-dependent increases in hClpP activity

Cn1c2c(c(=O)n(Cc3ccc(Cl)cc3)c1=O)CN(Cc1cccc(C#N)c1)CC2 [TR57]
ClpX and TUFM protein level (ClpX and TUFM): reduction of the protein ClpX and TUFM | Effect on growth of ClpP CRISPR knockout cells (SUM159, ClpP CRISPR KO): resistant
